Data taken from patent US20240239775A1, “FXR REGULATOR, PREPARATION METHOD THEREFOR, PHARMACEUTICAL COMPOSITION THEREOF AND USE THEREOF” (QINGDAO RUIJI MEDICAL TECHNOLOGY CO., LTD., priority 2021, published 2024).

What was measured:
[1] = target: T1, FXR (Homo sapiens, UniProt Q96RI1); assay: FXR antagonist screening by TR-FRET (LanthaScreen TR-FRET FXR co-activation assay kit); assay type: biochemical; conditions: Table 1.1, FXR antagonistic activity; TR-FRET with CDCA; geometric means of at least two independent runs
T1 construct: 5 μL of 20 nM FXR-LBD Complete Coregulator buffer G; purchased ThermoFisher PV4833
T1 sequence (Q96RI1 262-486 limits assumed): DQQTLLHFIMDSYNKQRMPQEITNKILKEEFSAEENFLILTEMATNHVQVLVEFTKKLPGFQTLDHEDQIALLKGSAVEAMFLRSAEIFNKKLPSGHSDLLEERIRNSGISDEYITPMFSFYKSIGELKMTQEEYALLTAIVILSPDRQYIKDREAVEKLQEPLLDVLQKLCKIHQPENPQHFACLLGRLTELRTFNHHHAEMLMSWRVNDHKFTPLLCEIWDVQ
Outline: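 FXR-LBD (20 nM working solution) mixed with compound, CDCA (200 μM working solution) as agonist, Fluorescein-SRC2-2 and Tb-anti-GST antibody in Coregulator buffer G; 10 h at room temperature. Coactivator recruitment read by TR-FRET, triplicate wells.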

SMILES	IC50 [1]	melting point
Cc1c(C(=O)O)oc2ccc(S(=O)(=O)N(CCc3ccccc3)Cc3ccccc3[N+](=O)[O-])cc12 [Example F27-S19, 3-methyl-5-(N-(2-nitrobenzyl)-N-phenethylsulfamoyl)benzofuran-2-carboxylic acid]	10 to 50 µM	180 to 181 °C
Cc1c(C(=O)O)oc2ccc(S(=O)(=O)N(CCc3ccccc3)Cc3cccc(F)c3)cc12 [Example F27-S20, 3-methyl-5-(N-(3-fluorobenzyl)-N-phenethylsulfamoyl)benzofuran-2-carboxylic acid]	10 to 50 µM	> 380 °C (dec.)
Cc1c(C(=O)O)oc2ccc(S(=O)(=O)N(CCc3ccccc3)Cc3cccc(Cl)c3)cc12 [Example F27-S21, 3-methyl-5-(N-(3-chlorobenzyl)-N-phenethylsulfamoyl)benzofuran-2-carboxylic acid]	10 to 50 µM	> 380 °C (dec.)
Cc1c(C(=O)O)oc2ccc(S(=O)(=O)N(CCc3ccccc3)Cc3cccc(Br)c3)cc12 [Example F27-S22, 3-methyl-5-(N-(3-bromobenzyl)-N-phenethylsulfamoyl)benzofuran-2-carboxylic acid]	10 to 50 µM	> 380 °C (dec.)
Cc1cccc(CN(CCc2ccccc2)S(=O)(=O)c2ccc3oc(C(=O)O)c(C)c3c2)c1 [Example F27-S23, 3-methyl-5-(N-(3-methylbenzyl)-N-phenethylsulfamoyl)benzofuran-2-carboxylic acid]	10 to 50 µM	> 380 °C (dec.)
Cc1c(C(=O)O)oc2ccc(S(=O)(=O)N(CCc3ccccc3)Cc3cccc(C(F)(F)F)c3)cc12 [Example F27-S24, 3-methyl-5-(N-(3-trifluoromethylbenzyl)-N-phenethylsulfamoyl)benzofuran-2-carboxylic acid]	50 to 100 µM	188 to 189 °C
Cc1c(C(=O)O)oc2ccc(S(=O)(=O)N(CCc3ccccc3)Cc3cccc([N+](=O)[O-])c3)cc12 [Example F27-S25, 3-methyl-5-(N-(3-nitrobenzyl)-N-phenethylsulfamoyl)benzofuran-2-carboxylic acid]	10 to 50 µM	> 380 °C (dec.)
Cc1c(C(=O)O)oc2ccc(S(=O)(=O)N(CCc3ccccc3)Cc3cccc(-c4ccccc4)c3)cc12 [Example F27-S26, 3-methyl-5-(N-([1,1′-biphenyl]-3-ylmethyl)-N-phenethylsulfamoyl)benzofuran-2-carboxylic acid]	10 to 50 µM	> 380 °C (dec.)
Cc1c(C(=O)O)oc2ccc(S(=O)(=O)N(CCc3ccccc3)Cc3cccc(Oc4ccccc4)c3)cc12 [Example F27-S27, 3-methyl-5-(N-(3-phenoxybenzyl)-N-phenethylsulfamoyl)benzofuran-2-carboxylic acid]	10 to 50 µM	> 183 °C
Cc1c(C(=O)O)oc2ccc(S(=O)(=O)N(CCc3ccccc3)Cc3ccc(F)cc3)cc12 [Example F27-S28, 3-methyl-5-(N-(4-fluorobenzyl)-N-phenethylsulfamoyl)benzofuran-2-carboxylic acid]	10 to 50 µM	188 to 189 °C
Cc1c(C(=O)O)oc2ccc(S(=O)(=O)N(CCc3ccccc3)Cc3ccc(Cl)cc3)cc12 [Example F27-S29, 3-methyl-5-(N-(4-chlorobenzyl)-N-phenethylsulfamoyl)benzofuran-2-carboxylic acid]	10 to 50 µM	172 to 173 °C
Cc1ccc(CN(CCc2ccccc2)S(=O)(=O)c2ccc3oc(C(=O)O)c(C)c3c2)cc1 [Example F27-S31, 3-methyl-5-(N-(4-methylbenzyl)-N-phenethylsulfamoyl)benzofuran-2-carboxylic acid]	10 to 50 µM	> 380 °C (dec.)
Cc1c(C(=O)O)oc2ccc(S(=O)(=O)N(CCc3ccccc3)Cc3ccc(C(F)(F)F)cc3)cc12 [Example F27-S32, 3-methyl-5-(N-(4-(trifluoromethyl)benzyl)-N-phenethylsulfamoyl)benzofuran-2-carboxylic acid]	10 to 50 µM	> 192 °C
Cc1c(C(=O)O)oc2ccc(S(=O)(=O)N(CCc3ccccc3)Cc3ccc(C(N)=O)cc3)cc12 [Example F27-S33, 3-methyl-5-(N-(4-carbamoylbenzyl)-N-phenethylsulfamoyl)benzofuran-2-carboxylic acid]	50 to 100 µM	> 380 °C (dec.)
Cc1c(C(=O)O)oc2ccc(S(=O)(=O)N(CCc3ccccc3)Cc3ccc(OC(F)(F)F)cc3)cc12 [Example F27-S34, 3-methyl-5-(N-(4-(trifluoromethoxy)benzyl)-N-phenethylsulfamoyl)benzofuran-2-carboxylic acid]	10 to 50 µM	216 to 217 °C
Cc1c(C(=O)O)oc2ccc(S(=O)(=O)N(CCc3ccccc3)Cc3ccc(SC(F)(F)F)cc3)cc12 [Example F27-S35, 3-methyl-5-(N-(4-(trifluoromethylthio)benzyl)-N-phenethylsulfamoyl)benzofuran-2-carboxylic acid]	10 to 50 µM	165 to 166 °C
Cc1c(C(=O)O)oc2ccc(S(=O)(=O)N(CCc3ccccc3)Cc3ccc(C(C)C)cc3)cc12 [Example F27-S36, 3-methyl-5-(N-(4-isopropylbenzyl)-N-phenethylsulfamoyl)benzofuran-2-carboxylic acid]	10 to 50 µM	206 to 207 °C
Cc1c(C(=O)O)oc2ccc(S(=O)(=O)N(CCc3ccccc3)Cc3ccc(C(C)(C)C)cc3)cc12 [Example F27-S37, 3-methyl-5-(N-(4-tert-butylbenzyl)-N-phenethylsulfamoyl)benzofuran-2-carboxylic acid]	10 to 50 µM	206 to 207 °C
CC(=O)c1ccc(CN(CCc2ccccc2)S(=O)(=O)c2ccc3oc(C(=O)O)c(C)c3c2)cc1 [Example F27-S38, 3-methyl-5-(N-(4-acetylbenzyl)-N-phenethylsulfamoyl)benzofuran-2-carboxylic acid]	50 to 100 µM	> 380 °C (dec.)
Cc1c(C(=O)O)oc2ccc(S(=O)(=O)N(CCc3ccccc3)Cc3ccc(C(=O)O)cc3)cc12 [Example F27-S39, 3-methyl-5-(N-(4-carboxybenzyl)-N-phenethylsulfamoyl)benzofuran-2-carboxylic acid]	50 to 100 µM	254 to 255 °C
Cc1c(C(=O)O)oc2ccc(S(=O)(=O)N(CCc3ccccc3)Cc3ccc(CC(=O)O)cc3)cc12 [Example F27-S41, 3-methyl-5-(N-(4-(carboxymethyl)benzyl)-N-phenethylsulfamoyl)benzofuran-2-carboxylic acid]	50 to 100 µM	182 to 183 °C
Cc1c(C(=O)O)oc2ccc(S(=O)(=O)N(CCc3ccccc3)Cc3ccc(/C=C/C(=O)O)cc3)cc12 [Example F27-S42, (E)-3-methyl-5-(N-(4-(2-carboxyvinyl)benzyl)-N-phenethylsulfamoyl)benzofuran-2-carboxylic acid]	50 to 100 µM	270 to 271 °C
Cc1c(C(=O)O)oc2ccc(S(=O)(=O)N(CCc3ccccc3)Cc3ccc4ccccc4c3)cc12 [Example F27-S45, 3-methyl-5-(N-(naphthalen-2-ylmethyl)-N-phenethylsulfamoyl)benzofuran-2-carboxylic acid]	10 to 50 µM	> 380 °C (dec.)
Cc1c(C(=O)O)oc2ccc(S(=O)(=O)N(CCc3ccccc3)Cc3c(F)cccc3F)cc12 [Example F27-S46, 3-methyl-5-(N-(2,6-difluorobenzyl)-N-phenethylsulfamoyl)benzofuran-2-carboxylic acid]	10 to 50 µM	180 to 181 °C
Cc1c(C(=O)O)oc2ccc(S(=O)(=O)N(CCc3ccccc3)Cc3c(F)cccc3Cl)cc12 [Example F27-S47, 3-methyl-5-(N-(2-fluoro-6-chlorobenzyl)-N-phenethylsulfamoyl)benzofuran-2-carboxylic acid]	0.1 to 10 µM	195 to 196 °C
Cc1c(C(=O)O)oc2ccc(S(=O)(=O)N(CCc3ccccc3)Cc3c(F)cccc3C(F)(F)F)cc12 [Example F27-S48, 3-methyl-5-(N-(2-fluoro-6-(trifluoromethyl)benzyl)-N-phenethylsulfamoyl)benzofuran-2-carboxylic acid]	10 to 50 µM	99 to 100 °C
Cc1c(C(=O)O)oc2ccc(S(=O)(=O)N(CCc3ccccc3)Cc3c(Cl)cccc3Cl)cc12 [Example F27-S49, 3-methyl-5-(N-(2,6-dichlorobenzyl)-N-phenethylsulfamoyl)benzofuran-2-carboxylic acid]	0.1 to 10 µM	176 to 177 °C
Cc1cccc(C)c1CN(CCc1ccccc1)S(=O)(=O)c1ccc2oc(C(=O)O)c(C)c2c1 [Example F27-S50, 3-methyl-5-(N-(2,6-dimethylbenzyl)-N-phenethylsulfamoyl)benzofuran-2-carboxylic acid]	0.1 to 10 µM	211 to 212 °C
Cc1c(C(=O)O)oc2ccc(S(=O)(=O)N(CCc3ccccc3)Cc3ccc(F)cc3F)cc12 [Example F27-S51, 3-methyl-5-(N-(2,4-difluorobenzyl)-N-phenethylsulfamoyl)benzofuran-2-carboxylic acid]	10 to 50 µM	155 to 156 °C
Cc1c(C(=O)O)oc2ccc(S(=O)(=O)N(CCc3ccccc3)Cc3ccc(Cl)cc3F)cc12 [Example F27-S52, 3-methyl-5-(N-(2-fluoro-4-chlorobenzyl)-N-phenethylsulfamoyl)benzofuran-2-carboxylic acid]	10 to 50 µM	> 380 °C (dec.)
